≈ marks a conversion by molar mass, not a printed value. Where “and” joins values, the source holds several entries; their conditions need not be identical. Identical values can stand only once. Counter-ions that a name gives are not always drawn. Like-named read-outs stand apart in the source and are kept apart here.
Columns and labels:
[1] = tested on: influenza A virus A/342/2009; assay: microbe, parasite or virus in culture; format: cell-based, influenza A virus H1N1; conditions: read-out: 50% inhibitory concentration, A/342/2009
[2] = tested on: influenza A virus A/Jena/5258/2009 (pandemic H1N1; oseltamivir-sensitive); format: cell-based
[3] = tested on: influenza A virus A/Jena/5258/2009; assay: microbe, parasite or virus in culture; format: cell-based, influenza A virus H1N1; conditions: read-out: 50% inhibitory concentration, A/Jena/5258/2009
[4] = in vivo; conditions: Sprague Dawley, rat, in vivo, po, 50 mg/kg
Method: Sprague Dawley (SD) rats were supplied for habitation 10 days before the start of the experiment, weighing ˜300-350 g and kept in an air conditioned room with a constant temperature of 20° C. and a humidity of 50%. In this room there was a day-night rhythm of twelve hours. The dark phase began daily at 18 o'clock and turned over to the light phase at 6 clock. The rats were kept over the acclimatization period in standard cages of the size 3 (length: 42 cm, width 26 cm, height: 15 cm) and transferred three days before commencement of an experiment into a special experimental room, placed in the identical environmental conditions. They received a maintenance diet (maintenance diet for rats and mice; No. 1320; Altromin) and tap water ad libitum.
A catheter was implanted in the vein as well as in the arteria femoralis of rats receiving an i.v. administration. Rats receiving only oral administration of substances received a […] catheter only.
The catheterized animals were kept after surgery for a day in the experimental room and individually in their experimental cages. The application of the test compounds was carried out on the second day after the operation. On the experimental day, the rats were weighed one hour prior to the test and the arterial catheter was flushed with 300 μl of heparin solution. Subsequently, the i.v. or oral administration of the compounds was carried out.
The oral administrations were performed as a suspension or solution made with gum arabic (10% w/v) by gavage.
The oral administrations were made as suspension or solution with gum arabic (10% w/v) by gavage.
After i.v. administration, plasma samples were taken at 5, 10, 20, 45, 90, 150, 240 and 360 min, respectively after oral administration after 30, 60, 90, 120, 180, 240 and 360 min. To this, in each case 300 μl of whole blood were taken using an insulin syringe and transferred into EDTA-coated Microvettes CB 300 (Sarstedt, Nümbrecht). After each withdrawal it was rinsed with 100 μl 0.9% saline or every 60 min with heparin solution (250 IU/ml). The blood sample was shaken briefly and put until centrifugation (4° C.; 14000 U/min; 10 min) on ice. Subsequently, the samples were frozen at −80° C.
The plasma samples were processed and analyzed by HPLC. Therefor, the plasma samples were thawed at room temperature. In each case, 80 μl methanol (+0.2% TFA) were prepared and subsequently 80 μl of the plasma samples were pipetted into. The samples were shaken for 45 min to precipitate plasma proteins. The samples were frozen at −80° C., thawed and shaken for another 15 min. The samples were centrifuged for 15 min at 13.000 RPM and the supernatant was transferred into HPLC vials. In each case 50 μl were used for the determinations by LC/MS.
The animal studies were evaluated using the following LC/MS method.

[5] = physchem; format: physicochemical; conditions: thermodynamic from solid; for solubility: read-out: maximum soluble concentration
Method: 2. Solubility Assays of the Compounds Tested
Determining the Solubility at Different pH Values:
Therefor, a few mg of the compounds were weighed and mixed with the volume of 50 mM KH2PO4 buffer of respective pH value for a 50 mM solution. […] Subsequently, the undissolved portion was removed by centrifugation at 10.000 rpm for 15 min, and the concentration in the supernatant was determined by HPLC.

[6] = target: albumin (Homo sapiens, UniProt P02768); format: in vitro ADME; conditions: 4% albumin solution, average of three concentrations (10, 25, 50 μM)
Sequence of albumin (P02768 25-609): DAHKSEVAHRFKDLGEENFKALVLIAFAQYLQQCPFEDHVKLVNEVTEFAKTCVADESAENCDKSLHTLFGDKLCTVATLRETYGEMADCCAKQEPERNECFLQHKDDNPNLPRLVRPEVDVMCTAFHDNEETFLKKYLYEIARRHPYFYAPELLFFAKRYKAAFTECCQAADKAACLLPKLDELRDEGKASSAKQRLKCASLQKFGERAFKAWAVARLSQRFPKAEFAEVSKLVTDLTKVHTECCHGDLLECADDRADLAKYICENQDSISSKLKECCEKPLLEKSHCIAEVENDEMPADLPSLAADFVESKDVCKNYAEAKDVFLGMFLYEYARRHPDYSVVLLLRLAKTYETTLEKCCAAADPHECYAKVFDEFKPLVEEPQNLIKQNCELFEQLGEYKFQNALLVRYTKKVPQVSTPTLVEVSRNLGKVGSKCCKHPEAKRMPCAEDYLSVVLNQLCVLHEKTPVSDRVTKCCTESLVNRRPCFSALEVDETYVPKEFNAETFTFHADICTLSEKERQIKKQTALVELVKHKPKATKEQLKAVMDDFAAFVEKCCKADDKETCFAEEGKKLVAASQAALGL
Method: 3. Determination of Protein Binding of the Amidine Effective Form (3) as Well as of Prodrugs Thereof (2, 4) and of the Guanidine Effective Form (9) as Well as of Prodrugs Thereof (6, 10)
The plasma protein binding was carried out in three different concentrations (10, 25, and 50 μM). A 4% albumin solution was used as protein solutions. In each case, 50 μl of a 10-fold concentrated substance solution were pipetted in 450 μl of the protein solution. The incubation was carried out for 15 minutes in the shaking water bath at 37° C. Subsequently, the samples were transferred in ultra-filtration units (Vivaspin 500, 10 kDa cut-off) and centrifuged for 15 min at 10.000 rpm. The filtrate was analyzed by HPLC. In addition, a control was run for each concentration, which was not treated with protein and not centrifuged.

SMILES	Plasma level of derivative 3 (Conc.) after oral administration of the labelled derivative ([4]; 0 min) [nM]	Plasma level of derivative 3 (Conc.) after oral administration of the labelled derivative ([4]; 30 min) [nM]	Plasma level of derivative 3 (Conc.) after oral administration of the labelled derivative ([4]; 60 min) [nM]	Plasma level of derivative 3 (Conc.) after oral administration of the labelled derivative ([4]; 90 min) [nM]	Plasma level of derivative 3 (Conc.) after oral administration of the labelled derivative ([4]; 120 min) [nM]	Plasma level of derivative 3 (Conc.) after oral administration of the labelled derivative ([4]; 180 min) [nM]	Plasma level of derivative 3 (Conc.) after oral administration of the labelled derivative ([4]; 240 min) [nM]	Plasma level of derivative 3 (Conc.) after oral administration of the labelled derivative ([4]; 360 min) [nM]	solubility at 30 min ([5]; aqueous buffer) [mM]	solubility at 30 min ([5]; pH 2, aqueous buffer)	solubility at 30 min ([5]; pH 7.4, aqueous buffer)	solubility at 30 min ([5]; pH 9, aqueous buffer)	Protein binding [6] [%]	Bioavailability [4] [%]	further results
CC(=O)N[C@H]1[C@H]([C@H](O)[C@H](O)CO)OC(C(=O)O)=C[C@@H]1N=C(N)N [Zanamivir, reference compound]															IC50 [1]: 600 nM; 90% inhibitory concentration, A/Jena/5258/2009 [2]: 0.125 (0.219) μM; 95% inhibitory concentration (values in parentheses), A/Jena/5258/2009 [2]: 0.125 (0.219) μM; IC50 [3]: > 19500 nM
CCOC(=O)C1=C[C@@H](OC(CC)CC)[C@H](NC(C)=O)[C@@H](N/C(C)=N/O)C1 [Compound 4, (3R,4R,5S)-4-acetamido-5-[N—(N′-hydroxy)acetimidamido]-3-(1-ethylpropoxy)cyclohex-1-en-1-carboxylic acid ethyl ester]	0	6500	8980	8800	8100	6430	5340	2190	> 20	> 18500 µg/mL and > 50000 µM	8600 ± 400 µg/mL	8600 ± 700 µg/mL	26.7 ± 2.5		Plasma level of intermediary metabolite 11 (Conc.) after oral administration of derivative 4 ([4]; 0 min): 0 nM; Plasma level of intermediary metabolite 11 (Conc.) after oral administration of derivative 4 ([4]; 30 min): 7220 nM; Plasma level of intermediary metabolite 11 (Conc.) after oral administration of derivative 4 ([4]; 60 min): 2680 nM; Plasma level of intermediary metabolite 11 (Conc.) after oral administration of derivative 4 ([4]; 90 min): 2160 nM; Plasma level of intermediary metabolite 11 (Conc.) after oral administration of derivative 4 ([4]; 120 min): 1960 nM; Plasma level of intermediary metabolite 11 (Conc.) after oral administration of derivative 4 ([4]; 180 min): 850 nM; Plasma level of intermediary metabolite 11 (Conc.) after oral administration of derivative 4 ([4]; 240 min): 490 nM; Plasma level of intermediary metabolite 11 (Conc.) after oral administration of derivative 4 ([4]; 360 min): 130 nM; solubility ([5]; aqueous buffer, pH 7.4, 50 mM KH2PO4 buffer): 23.2 ± 1.2 mM (≈ 8570 µg/mL); solubility ([5]; aqueous buffer, pH 9.0, 50 mM KH2PO4 buffer): 23.3 ± 1.8 mM (≈ 8610 µg/mL)
CCOC(=O)C1=C[C@@H](OC(CC)CC)[C@H](NC(C)=O)[C@@H](NC(C)=N)C1 [Compound 2, (3R,4R,5S)-4-acetamido-5-(N-acetimidamido)-3-(1-ethylpropoxy)cyclohex-1-en-1-carboxylic acid ethyl ester hydrobromide]	0	430	350	330	290	70	10	0	> 50	> 17700 µg/mL and > 50000 µM	> 17700 µg/mL and > 50000 µM	> 17700 µg/mL and > 50000 µM	34.8 ± 8.8	0.8	
CCOC(=O)C1=C[C@@H](OC(CC)CC)[C@H](NC(C)=O)[C@@H](NC(N)=NO)C1 [Compound 6, (3R,4R,5S)-4-acetamido-[N—(N′ hydroxy)guanidino]-3-(1-ethylpropoxy)cyclohex-1-en-1-carboxylic acid ethyl ester]									> 50	> 18500 µg/mL and > 50000 µM	> 18500 µg/mL and > 50000 µM	> 18500 µg/mL and > 50000 µM	37.5 ± 10.1	1.7	Plasma level of derivative 9 (Conc.) after oral administration of the labelled derivative ([4]; 0 min): 0 nM; Plasma level of intermediary metabolite 12 (Conc.) after oral administration of derivative 6 ([4]; 0 min): 0 nM; Plasma level of derivative 9 (Conc.) after oral administration of the labelled derivative ([4]; 30 min): 200 nM; Plasma level of intermediary metabolite 12 (Conc.) after oral administration of derivative 6 ([4]; 30 min): 200 nM; Plasma level of derivative 9 (Conc.) after oral administration of the labelled derivative ([4]; 60 min): 220 nM; Plasma level of intermediary metabolite 12 (Conc.) after oral administration of derivative 6 ([4]; 60 min): 160 nM; Plasma level of derivative 9 (Conc.) after oral administration of the labelled derivative ([4]; 90 min): 180 nM; Plasma level of intermediary metabolite 12 (Conc.) after oral administration of derivative 6 ([4]; 90 min): 200 nM; Plasma level of derivative 9 (Conc.) after oral administration of the labelled derivative ([4]; 120 min): 190 nM; Plasma level of intermediary metabolite 12 (Conc.) after oral administration of derivative 6 ([4]; 120 min): 190 nM; Plasma level of derivative 9 (Conc.) after oral administration of the labelled derivative ([4]; 180 min): 210 nM; Plasma level of intermediary metabolite 12 (Conc.) after oral administration of derivative 6 ([4]; 180 min): 80 nM; Plasma level of derivative 9 (Conc.) after oral administration of the labelled derivative ([4]; 240 min): 180 nM; Plasma level of intermediary metabolite 12 (Conc.) after oral administration of derivative 6 ([4]; 240 min): 10 nM; Plasma level of derivative 9 (Conc.) after oral administration of the labelled derivative ([4]; 360 min): 50 nM; Plasma level of intermediary metabolite 12 (Conc.) after oral administration of derivative 6 ([4]; 360 min): 0 nM
CCOC(=O)C1=C[C@@H](OC(CC)CC)[C@H](NC(C)=O)[C@@H](NC(=N)N)C1 [Compound 10]									> 50	> 23400 µg/mL and > 50000 µM	> 23400 µg/mL and > 50000 µM	> 23400 µg/mL and > 50000 µM	30.1 ± 2.3	1.1	

Source: US9828333B2, “Compounds for the treatment of influenza” (CHRISTIAN-ALBRECHTS-UNIVERSITAT ZU KIEL, priority 2011, dated 2017)
